Data from patent US20250353853A1, “FLAVIVIRUS INHIBITORS” (IRBM S.P.A., priority 2022, published 2025).
Counter-ions that a name gives are not always drawn.

Tested on: ZIKV replicon in Vero cells
Test: ZIKV Replication Inhibition Assay (replicon, NanoLuc)
Conditions: Zika virus, Vero, 72 h, read-out: Zika Replicon EC50

SMILES | EC50 [µM]
CC(Cc1ccccc1)[n+]1cc([N-]C(=O)Nc2cccc(C(F)(F)F)c2)on1 (stereo not drawn) [Example 1, (3-(1-Phenylpropan-2-yl)-1,2,3-oxadiazol-3-ium-5-yl)((3-(trifluoromethyl)phenyl)carbamoyl)amide] | 1 to 20
CC(Cc1ccccc1)[n+]1cc([N-]C(=O)Nc2ccc(C(F)(F)F)cc2)on1 (stereo not drawn) [Example 2, (3-(1-phenylpropan-2-yl)-1,2,3-oxadiazol-3-ium-5-yl)((4-(trifluoromethyl)phenyl)carbamoyl)amide] | > 20
CC(Cc1ccccc1)[n+]1cc([N-]C(=O)Nc2ccc3ccccc3c2)on1 (stereo not drawn) [Example 3, (Naphthalen-2-ylcarbamoyl)(3-(1-phenylpropan-2-yl)-1,2,3-oxadiazol-3-ium-5-yl)amide] | > 20
CC(Cc1ccccc1)[n+]1cc([N-]C(=O)Nc2ncc(C(F)(F)F)s2)on1 (stereo not drawn) [Example 4, (3-(1-phenylpropan-2-yl)-1,2,3-oxadiazol-3-ium-5-yl)((5-(trifluoromethyl)thiazol-2-yl)carbamoyl)amide] | 1 to 20
O=C([N-]c1c[n+](CCc2ccccc2)no1)Nc1cccc(C(F)(F)F)c1 [Example 5, (3-phenethyl-1,2,3-oxadiazol-3-ium-5-yl)((3-(trifluoromethyl)phenyl)carbamoyl)amide] | 0.1 to 1
O=C([N-]c1c[n+](Cc2ccccc2)no1)Nc1cccc(C(F)(F)F)c1 [Example 6, (3-Benzyl-1,2,3-oxadiazol-3-ium-5-yl)((3-(trifluoromethyl)phenyl)carbamoyl) amide] | 1 to 20
O=C([N-]c1c[n+](-c2ccccc2)no1)Nc1cccc(C(F)(F)F)c1 [Example 7, (3-phenyl-1,2,3-oxadiazol-3-ium-5-yl)((3-(trifluoromethyl)phenyl)carbamoyl) amide] | 1 to 20
CC(Cc1ccccc1)[n+]1cc([N-]C(=O)Nc2cccc(Cl)c2)on1 (stereo not drawn) [Example 8, ((3-chlorophenyl)carbamoyl)(3-(1-phenylpropan-2-yl)-1,2,3-oxadiazol-3-ium-5-yl)amide] | > 20
CC(Cc1ccc(Cl)c(Cl)c1)[n+]1cc([N-]C(=O)Nc2cccc(C(F)(F)F)c2)on1 (stereo not drawn) [Example 9, (3-(1-(3,4-dichlorophenyl)propan-2-yl)-1,2,3-oxadiazol-3-ium-5-yl)((3-(trifluoromethyl)phenyl)carbamoyl)amide] | 1 to 20
O=C([N-]c1c[n+](C2Cc3ccccc3C2)no1)Nc1cccc(C(F)(F)F)c1 [Example 10, (3-(2,3-dihydro-1H-inden-2-yl)-1,2,3-oxadiazol-3-ium-5-yl)((3-(trifluoromethyl)phenyl)carbamoyl)amide] | 1 to 20
CC(Cc1ccccc1)[n+]1cc([N-]C(=O)Nc2cc(F)cc(C(F)(F)F)c2)on1 (stereo not drawn) [Example 11, ((3-fluoro-5-(trifluoromethyl)phenyl)carbamoyl)(3-(1-phenylpropan-2-yl)-1,2,3-oxadiazol-3-ium-5-yl)amide] | > 20
CC(Cc1ccccc1)[n+]1cc([N-]C(=O)Nc2ccc3ncccc3c2)on1 (stereo not drawn) [Example 12, (3-(1-phenylpropan-2-yl)-1,2,3-oxadiazol-3-ium-5-yl)(quinolin-6-ylcarbamoyl) amide] | > 20
C[C@H](Cc1ccccc1)[n+]1cc([N-]C(=O)Nc2cccc(C(F)(F)F)c2)on1 [Example 13, (R)-(3-(1-phenylpropan-2-yl)-1,2,3-oxadiazol-3-ium-5-yl)((3-(trifluoromethyl)phenyl)carbamoyl)amide] | 1 to 20
C[C@@H](Cc1ccccc1)[n+]1cc([N-]C(=O)Nc2cccc(C(F)(F)F)c2)on1 [Example 14, (S)-(3-(1-phenylpropan-2-yl)-1,2,3-oxadiazol-3-ium-5-yl)((3-(trifluoromethyl)phenyl)carbamoyl)amide] | > 20
CC(Cc1ccccc1)[n+]1cc([N-]C(=O)Nc2cncc(C(F)(F)F)c2)on1 (stereo not drawn) [Example 15, (3-(1-Phenylpropan-2-yl)-1,2,3-oxadiazol-3-ium-5-yl)((5-(trifluoromethyl)pyridin-3-yl)carbamoyl)amide] | 1 to 20
CC(Cc1ccccc1)[n+]1cc([N-]C(=O)Nc2cc(C(F)(F)F)ccn2)on1 (stereo not drawn) [Example 16, (3-(1-phenylpropan-2-yl)-1,2,3-oxadiazol-3-ium-5-yl)((4-(trifluoromethyl)pyridin-2-yl)carbamoyl)amide] | > 20
O=C([N-]c1c[n+](Cc2ccc(-c3ccccc3)cc2)no1)Nc1cccc(C(F)(F)F)c1 [Example 17, (3-([1,1′-Biphenyl]-4-ylmethyl)-1,2,3-oxadiazol-3-ium-5-yl)((3-(trifluoromethyl)phenyl)carbamoyl)amide] | 0.1 to 1
O=C([N-]c1c[n+](Cc2ccc3ccccc3c2)no1)Nc1cccc(C(F)(F)F)c1 [Example 18, (3-(naphthalen-2-ylmethyl)-1,2,3-oxadiazol-3-ium-5-yl)((3-(trifluoromethyl)phenyl)carbamoyl)amide] | 1 to 20

SMILES | EC50 [µM]
O=C([N-]c1c[n+](Cc2ccc(-c3ccsc3)cc2)no1)Nc1cccc(C(F)(F)F)c1 [Example 20, (3-(4-(thiophen-3-yl)benzyl)-1,2,3-oxadiazol-3-ium-5-yl)((3(trifluoromethyl)phenyl)carbamoyl)amide] | 0.1 to 1
Cc1ccccc1-c1ccc(C[n+]2cc([N-]C(=O)Nc3cccc(C(F)(F)F)c3)on2)cc1 [Example 21, (3-((2′-methyl-[1,1′-biphenyl]-4-yl)methyl)-1,2,3-oxadiazol-3-ium-5-yl)((3-(trifluoromethyl)phenyl)carbamoyl)amide] | 0.1 to 1
O=C([N-]c1on[n+](Cc2ccccc2)c1Cl)Nc1cccc(C(F)(F)F)c1 [Example 24, (3-Benzyl-4-chloro-1,2,3-oxadiazol-3-ium-5-yl)((3-(trifluoromethyl)phenyl)carbamoyl)amide] | > 20
O=C([N-]c1c[n+](C2(c3ccccc3)CC2)no1)Nc1cccc(C(F)(F)F)c1 [Example 25, (3-(1-phenylcyclopropyl)-1,2,3-oxadiazol-3-ium-5-yl)((3-(trifluoromethyl)phenyl)carbamoyl)amide] | 1 to 20
O=C([N-]c1c[n+](Cc2cccc(-c3ccccc3)c2)no1)Nc1cccc(C(F)(F)F)c1 [Example 27, (3-([1,1′-biphenyl]-3-ylmethyl)-1,2,3-oxadiazol-3-ium-5-yl)((3-(trifluoromethyl)phenyl)carbamoyl)amide] | 1 to 20
CC(C[n+]1cc([N-]C(=O)Nc2cccc(C(F)(F)F)c2)on1)c1ccccc1 (stereo not drawn) [Example 28, (3-(2-phenylpropyl)-1,2,3-oxadiazol-3-ium-5-yl)((3-(trifluoromethyl)phenyl)carbamoyl)amide] | 0.1 to 1
O=C([N-]c1c[n+](Cc2cccnc2)no1)Nc1cccc(C(F)(F)F)c1 [Example 29, (3-(pyridin-3-ylmethyl)-1,2,3-oxadiazol-3-ium-5-yl)((3-(trifluoromethyl)phenyl)carbamoyl)amide] | 1 to 20
O=C([N-]c1c[n+]([C@@H](CO)c2ccccc2)no1)Nc1cccc(C(F)(F)F)c1 [Example 30, (R)-(3-(2-hydroxy-1-phenylethyl)-1,2,3-oxadiazol-3-ium-5-yl)((3-(trifluoromethyl)phenyl)carbamoyl)amide] | 1 to 20
O=C([N-]c1c[n+]([C@H](CO)c2ccccc2)no1)Nc1cccc(C(F)(F)F)c1 [Example 31, (S)-(3-(2-hydroxy-1-phenylethyl)-1,2,3-oxadiazol-3-ium-5-yl)((3-(trifluoromethyl)phenyl)carbamoyl)amide] | > 20
O=C([N-]c1c[n+]([C@H](CO)Cc2ccccc2)no1)Nc1cccc(C(F)(F)F)c1 [Example 32, (S)-(3-(1-hydroxy-3-phenylpropan-2-yl)-1,2,3-oxadiazol-3-ium-5-yl)((3-(trifluoromethyl)phenyl)carbamoyl)amide] | 1 to 20
Cc1cc(NC(=O)[N-]c2c[n+](C(C)Cc3ccccc3)no2)cc(C(F)(F)F)c1 (stereo not drawn) [Example 33, ((3-methyl-5-(trifluoromethyl)phenyl)carbamoyl)(3-(1-phenylpropan-2-yl)-1,2,3-oxadiazol-3-ium-5-yl)amide] | > 20
COc1cc(NC(=O)[N-]c2c[n+](C(C)Cc3ccccc3)no2)cc(C(F)(F)F)c1 (stereo not drawn) [Example 34, ((3-methoxy-5-(trifluoromethyl)phenyl)carbamoyl)(3-(1-phenylpropan-2-yl)-1,2,3-oxadiazol-3-ium-5-yl)amide] | > 20
C=C(c1ccccc1)[n+]1cc([N-]C(=O)Nc2cccc(C(F)(F)F)c2)on1 [Example 35, (3-(1-Phenylvinyl)-1,2,3-oxadiazol-3-ium-5-yl)((3-(trifluoromethyl)phenyl)carbamoyl)amide] | 1 to 20
C=C(Cc1ccccc1)[n+]1cc([N-]C(=O)Nc2cccc(C(F)(F)F)c2)on1 [Example 36, (3-(3-phenylprop-1-en-2-yl)-1,2,3-oxadiazol-3-ium-5-yl)((3-(trifluoromethyl)phenyl)carbamoyl)amide] | > 20
O=C([N-]c1c[n+]([C@H](CF)Cc2ccccc2)no1)Nc1cccc(C(F)(F)F)c1 [Example 37, (S)-(3-(1-fluoro-3-phenylpropan-2-yl)-1,2,3-oxadiazol-3-ium-5-yl)((3-(trifluoromethyl)phenyl)carbamoyl)amide] | > 20
CC(c1ccccc1)[n+]1cc([N-]C(=O)Nc2cccc(C(F)(F)F)c2)on1 (stereo not drawn) [Example 38, (3-(1-phenylethyl)-1,2,3-oxadiazol-3-ium-5-yl)((3-(trifluoromethyl)phenyl)carbamoyl)amide] | 1 to 20
Cc1nc(OCCN(C)C)ncc1-c1ccc(C[n+]2cc([N-]C(=O)Nc3cccc(C(F)(F)F)c3)on2)nc1 [Example 43, (3-((5-(2-(2-(dimethylamino)ethoxy)-4-methylpyrimidin-5-yl)pyridin-2-yl)methyl)-1,2,3-oxadiazol-3-ium-5-yl)((3-(trifluoromethyl)phenyl)carbamoyl)amide] | 0.1 to 1
NC[C@@H](Cc1ccccc1)[n+]1cc([N-]C(=O)Nc2cccc(C(F)(F)F)c2)on1 [Example 49, (R)-(3-(1-amino-3-phenylpropan-2-yl)-1,2,3-oxadiazol-3-ium-5-yl)((3-(trifluoromethyl)phenyl)carbamoyl)amide formate] | > 20
